Reference: US20190328665A1, “LIPOSOME COMPOSITIONS ENCAPSULATING MODIFIED CYCLODEXTRIN COMPLEXES AND USES THEREOF” (priority 2014, published 2019)
In brackets after ≈: the same amount, converted by molar mass. One block for each compound: values may come before it.

Experiments:
[1] = Remote loading of cyclodextrin-encapsulated dyes/drugs into liposomes; type: physicochemical
Method: (§1) Equimolar quantities of the drug (0.1 mmol; 30-50 mg) and appropriate cyclodextrin ([…]; 110-185 mg) were dissolved separately in methanol (nearly saturated; ˜1-2 mL) and deionized water (˜10-20 mg/mL), respectively. The methanolic solution of the drug was then added dropwise into the cyclodextrin solution with agitation ensuring a uniform suspension. This suspension was then shaken at 55° C. for 36-48 hours using an Eppendorf Thermomixer R. The solution was filtered to remove particulate matter and flash frozen in a dry ice/acetone bath followed by lyophilization. The lyophilized complex was stored at −20° C. until further use.
The lyophilized powder complex described above was pulverized and incubated with appropriate liposomal solutions (30-40 mg drug equivalent in 6 mL liposomal solution, to achieve loading ratios of 5-8 mg/mL concentrations) for 1 hour at 65° C. They were centrifuged at 1,000×g for 3 minutes to remove particulate matter and then dialyzed against 300 mM sucrose or commercial PBS solution (pH 7.4) overnight to remove material that had not been loaded into the liposomes. The size distributions of the liposomal formulations were characterized using the Malvem ZS90 instrument described above.
The liposomal solution was dialyzed against PBS overnight.
Organic dyes (coumarins) were used to determine whether the modified cyclodextrins could encapsulate and transport hydrophobic compounds across the liposome bilayer. […] It was determined that the most efficient and convenient way to encapsulate the coumarins was by freeze drying (Cao et al. (2005) Drug Dev. Industr. Pharm. 31:747-756; Badr-Eldin et al. (2008) Eur. J. Pharm. Biopharm. 70:819-827). […] Following overnight dialysis to remove unincorporated complexes, the liposomes were subsequently disrupted with methanol and the coumarin fluorescence measured. As shown by fluorescence spectroscopy, all cyclodextrin-dye complexes were incorporated into liposomes with high efficiency (>95%; FIG. 5). […]

RKO xenografts = test: RKO xenograft tumor growth; type: in vivo, nude mice; conditions: free drug 150 mg/kg
Method: (§2) Tumor volume was recorded every 48 hours.
With the free drug, severe acute toxicity was evident. In previous studies, the free drug was administered by oral gavage, because its solubility is not sufficient for intravenous dosing.

[2] = Phase II / Phase 2 trials; cited from earlier work
physchem = type: physicochemical; conditions: for solubility: water
Method: as §1
Organic dyes (coumarins) were used to determine whether the modified cyclodextrins could encapsulate and transport hydrophobic compounds across the liposome bilayer. Coumarins are very hydrophobic and a dramatic improvement in aqueous solubility was observed after they were encapsulated into 6′-mono-ethylenediamino-6′-deoxy-cyclodextrin (compound III). It was determined that the most efficient and convenient way to encapsulate the coumarins was by freeze drying (Cao et al. (2005) Drug Dev. Industr. Pharm. 31:747-756; Badr-Eldin et al. (2008) Eur. J. Pharm. Biopharm. 70:819-827). […] Once dissolved, the cyclodextrin-coumarin complexes were incubated with pre-formed liposomes exactly as described above, using a pH gradient to drive the compounds across the bilayer. Following overnight dialysis to remove unincorporated complexes, the liposomes were subsequently disrupted with methanol and the coumarin fluorescence measured. As shown by fluorescence spectroscopy, all cyclodextrin-dye complexes were incorporated into liposomes with high efficiency (>95%; FIG. 5). […] The incorporation of coumarin dyes into liposomes was easily discerned by the naked eye, as the coumarin-cyclodextrin liposomes were bright yellow, whereas control liposomes (made without cyclodextrins, for example) were colorless (FIGS. 5A-5C).

[3] = mouse, in vivo, iv
Method: Coumarin 334 was used as a drug surrogate to assess biodistribution and pharmacokinetics of cyclodextrin-encapsulated liposomes. […] Female athymic nu/nu mice bearing HCT116 subcutaneous xenografts were used in the study following a modified protocol described in Macdiarmid et al. (2007) Cancer Cell 11:431-445. When the tumor volumes reached 400-600 mm^3, 12 mice were treated intravenouslys (i.v.) with 200 μL cyclodextrin-encapsulated, liposomal (CYCL-)coumarin 334 (0.5 mg/mL). Posttreatment, four mice were euthanized at time points 2, 24, and 48 hours and tumor, spleen, liver, kidneys, heart, and lungs were excised and weighed. Blood was also collected, and plasma was separated and stored at 4° C. Except for plasma, each frozen tissue was homogenized and sonicated in 0.9% saline [3×volume (μL) of tissue mass (mg)]. […] The samples were centrifuged (6,000×g for 10 minutes) and the fluorescence in the supematants was measured by a CytoFluor II fluorescence multiwall plate reader (Applied Biosystems) using excitation 485 nm/emission 530 nm. […]
To establish biodistribution and pharmacokinetics of the CYCL liposomes, liposomes loaded with coumarin 334 encapsulated in cyclodextrin VI were used to treat HCT116-bearing mice by intravenous (i.v.) injection. Samples from major tissues harvested at 2, 24, and 48 hours post-treatment were analyzed for their fluorescence.

in vivo = conditions: female, athymic nu/nu, mouse, iv
[4] = Passive loading of BI-2536 into liposomes; type: physicochemical
Method: Method 1: Encapsulation of BI-2536 in the lipid layer. Hydrogenated egg phosphatidylcholine (Avanti Polar Lipids), cholesterol, and DSPE-PEG2000 (Avanti Polar Lipids) (molar ratios 50:45:5) were dissolved in chloroform (20 mL). Ten milligrams of BI-2536 (in 1 mL chloroform) was added and the solvent was evaporated to generate a thin film. One milliliter of PBS (pH 7.4) was added to hydrate the lipid layer, and the mixture was shaken at 50° C. for 2 hours as described above. The vesicle suspension was sonicated for 30 min and then extruded successively through 0.4-, 0.2-, and 0.1-μm polycarbonate membranes (Whatman; Nuclepore Track-Etched Membrane) at 50° C. to obtain the final liposomes with low polydispersity at the desired size. The liposomes were then dialyzed in PBS overnight to remove unentrapped drug. The average size and polydispersity index were then measured by dynamic light-scattering experiments on a Malvem Z90. Drug content was calculated by rupturing the liposomes with an equal volume of methanol and measuring the UV-vis absorbance on a NanoDrop 1000.
Method 2: Hydration of the lipid layer with an aqueous formulation of BI-2536. Hydrogenated egg phosphatidylcholine (Avanti Polar Lipids), cholesterol, and DSPE-PEG2000 (Avanti Polar Lipids) (molar ratios 50:45:5) were dissolved in chloroform (20 mL), and the solvent was evaporated in vacuo to generate a thin film. One milliliter of aqueous BI-2536 (4 mg; pH 5.5) was added to hydrate the lipid layer, and the mixture was shaken at 50° C. for 2 hours as described above. The vesicle suspension was sonicated for 30 minutes and then extruded successively through 0.4-, 0.2-, and 0.1-μm polycarbonate membranes (Whatman; Nuclepore Track-Etched Membrane) at 50° C. to obtain the final liposomes with low polydispersity at the desired size. The liposomes were then dialyzed against PBS overnight to remove unentrapped drug. The average size and polydispersity index were then measured by dynamic light-scattering experiments on a Malvem Z90. Drug content was calculated by rupturing the liposomes with an equal volume of methanol and measuring the UV-vis absorbance on a NanoDrop 1000.
The cyclodextrin-based loading method was also compared with the most common approaches to entrapping hydrophobic and insoluble agents in liposomes. First, direct entrapment of BI-2536 in the lipid bilayer was attempted. BI-2536 was co-evaporated with hydrogenated egg phosphatidylcholine-cholesterol-1,2-distearoyl-sn-glycero-3-phosphoethanolamine-N-[methoxy(polyethylene glycol)-2000 (DSPE-PEG 2000) to prepare a thin film, which was subsequently hydrated with 1 mL PBS and extruded through a 100-nm polycarbonate membrane at 700 psi to prepare small, unilamellar vesicles (average particle size (Zavg) 126 nm; PDI 0.09). Upon overnight dialysis against PBS to remove unentrapped drug, the drug-containing liposomes rapidly swelled (Zavg 539 nm; PDI 0.49) and released nearly 90% of the entrapped drug. Second, the lipid film was hydrated with an aqueous formulation of BI-2536 (passive loading). Hydration of the lipid film, followed by extrusion and dialyses, led to stable liposomes. However, the encapsulation efficiency was <10%, 20-fold less than achievable with the modified cyclodextrins described herein.

[5] = mouse, in vivo, iv, 100 mg/kg
HCT116 xenografts = test: HCT116 subcutaneous xenograft tumor growth; type: in vivo, nude mice
Method: as §2

[6] = test system: HCT116 cells with genetically inactivated TP53 alleles; test: Xenograft of HCT116 cells with genetically inactivated TP53 alleles; set-up: species or system nude mice; conditions: mouse, in vivo
Method: as §2

[7] = direct entrapment in lipid bilayer, after extrusion
[8] = direct entrapment in lipid bilayer, after overnight dialysis against PBS

loading into liposomes in the absence of cyclodextrins ([1]; citrate liposomes, identical conditions): poorly incorporated into liposomes
Compound: CCOC(=O)c1cc2cc3c4c(c2oc1=O)CCCN4CCC3 [coumarin 314]
loading efficiency when encapsulated in unionizable native β-cyclodextrin ([1]; citrate liposomes): only marginally improved the loading efficiency

persistence in blood and tumor [3]: persisted in the blood and tumor
Compound: CC(=O)c1cc2cc3c4c(c2oc1=O)CCCN4CCC3 [coumarin 334]
tissue clearance [3]: cleared from most of the tissues examined

liposome loading of PD-0325901 among cyclodextrins VI, VII, VIII, IX ([1]; acidic or basic liposomes): best liposome loading
Compound: 6′,6′,6′,6′,6′,6′,6′-heptakis-succinyl-β-cyclodextrin [IX]

Second part, the compound before the results:

Compound: O=C(NOC[C@H](O)CO)c1ccc(F)c(F)c1Nc1ccc(I)cc1F [PD-0325901]
slowing of tumor growth (RKO xenografts): ~5%
toxicity in clinical trials [2]: retinal vein occlusion (RVO)
increase in solubility after encapsulation into cyclodextrins (physchem): ~40 fold
solubility (physchem): 100 µg/mL (≈ 207 µM)

Compound: CC[C@@H]1C(=O)N(C)c2cnc(Nc3ccc(C(=O)NC4CCN(C)CC4)cc3OC)nc2N1C1CCCC1 [BI-2536]
MTD (in vivo): 100 mg/kg
PDI [4, 7]: 0.09
average particle size (Zavg) [4, 7]: 126 nm
PDI [4, 8]: 0.49
average particle size (Zavg) [4, 8]: 539 nm
entrapped drug released ([4]; direct entrapment in lipid bilayer, overnight dialysis against PBS): ~90%
encapsulation efficiency relative to modified cyclodextrins (fold less) ([4]; passive loading): 20 fold
encapsulation efficiency ([4]; passive loading: lipid film hydrated with aqueous BI-2536): < 10%
toxicity in clinical trials [2]: unacceptable toxicity (grade 4 neutropenia) at sub-therapeutic doses
acute toxicity / survival [5]: somewhat lethargic immediately after drug administration, but survived
tumor regressions (HCT116 xenografts; mouse, in vivo): not with free drug
slowing of tumor growth (HCT116 xenografts; two i.v. doses of 100 mg/kg): ~30%
effect of aminated cyclodextrins V and VI on aqueous solubility (physchem): dramatically improved
solubility (physchem): 500 µg/mL (≈ 958 µM)
tumor regressions [6]: not with free drug
